{"source": "patent US20230174571A1", "about": "“METHOD OF TREATING SHIP1-MEDIATED DISEASES USING PELOROL DERIVATIVES” (Zebrapeutics Inc., priority 2020, published 2023)", "key": {"[1]": {"molecular_target": "T1, SHIP1 and STAT3 (Mus musculus, UniProt Q9ES52)", "T1 construct": "expressed in transfected cells; host or cells: J17 (SHIP1-/- mouse BMDM-derived line), lentiviral transduction", "T1 sequence (Q9ES52 1-1191)": "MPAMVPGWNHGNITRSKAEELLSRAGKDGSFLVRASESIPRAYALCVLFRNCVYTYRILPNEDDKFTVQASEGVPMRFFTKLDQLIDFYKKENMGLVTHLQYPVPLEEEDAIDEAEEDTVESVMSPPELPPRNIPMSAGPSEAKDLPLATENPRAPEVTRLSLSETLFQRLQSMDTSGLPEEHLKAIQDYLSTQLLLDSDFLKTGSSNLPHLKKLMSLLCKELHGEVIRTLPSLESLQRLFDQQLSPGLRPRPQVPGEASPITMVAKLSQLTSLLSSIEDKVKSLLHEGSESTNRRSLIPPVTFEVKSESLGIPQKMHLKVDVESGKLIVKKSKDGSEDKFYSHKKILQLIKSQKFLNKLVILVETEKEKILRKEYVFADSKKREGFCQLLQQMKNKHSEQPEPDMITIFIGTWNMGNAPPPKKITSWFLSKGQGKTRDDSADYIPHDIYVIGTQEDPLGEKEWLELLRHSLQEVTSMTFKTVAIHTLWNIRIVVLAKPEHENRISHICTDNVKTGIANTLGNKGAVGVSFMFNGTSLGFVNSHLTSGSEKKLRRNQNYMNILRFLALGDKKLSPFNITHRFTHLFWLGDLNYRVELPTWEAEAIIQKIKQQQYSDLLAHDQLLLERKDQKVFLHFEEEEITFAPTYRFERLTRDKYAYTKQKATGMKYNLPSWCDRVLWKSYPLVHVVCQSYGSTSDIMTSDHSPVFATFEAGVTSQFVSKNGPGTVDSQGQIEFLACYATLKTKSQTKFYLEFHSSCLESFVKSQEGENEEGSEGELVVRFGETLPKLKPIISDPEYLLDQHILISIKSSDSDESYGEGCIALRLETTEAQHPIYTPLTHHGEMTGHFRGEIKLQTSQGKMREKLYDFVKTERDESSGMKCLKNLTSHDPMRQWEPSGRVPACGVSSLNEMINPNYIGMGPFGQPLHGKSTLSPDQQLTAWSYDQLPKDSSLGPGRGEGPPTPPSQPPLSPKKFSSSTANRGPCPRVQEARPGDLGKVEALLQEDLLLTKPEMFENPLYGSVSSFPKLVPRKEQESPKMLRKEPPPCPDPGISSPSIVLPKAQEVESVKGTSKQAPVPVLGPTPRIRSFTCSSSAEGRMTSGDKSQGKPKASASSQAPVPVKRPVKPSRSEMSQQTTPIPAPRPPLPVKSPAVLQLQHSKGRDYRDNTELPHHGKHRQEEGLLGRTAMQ", "assay": "In vitro pull down assay of His6-SHIP1 with STAT3", "type": "cell-based", "conditions": "J17 His6-SHIP1 cells; 100 ng/ml IL10 or IL6, 20 μM compound I-2; 5 minutes", "method": "In vitro pull down assay. J17 His6-SHIP1 and Y190F cells were seeded at 2×10^6 cells per well in a 6-well plate. After overnight incubation, fresh cell media was added for 30 minutes before stimulation with 100 ng/ml IL10, […] or 20 μM compound I-2 for 5 minutes. Cells were lysed with Protein Solubilization Buffer (PSB, 50 mM Hepes, pH 7.5, […], 10 mM Na Pyrophosphate, 2 mM NaVO4, 2 mM Na Molybdate, 2 mM EDTA) containing 1% octylglucoside, 0.01 M imidazole, and protease inhibitor cocktail (Roche Diagnostics, Laval, QC) for 30 minutes at 4° C. and centrifuged at 10000 rpm for 15 minutes. EDTA resistant Ni beads (Roche Diagnostics, Laval, QC) were added to supernatants and the mixture incubated at 4° C. for 1 hour before spinning down and washing of beads three times with 0.1% octylglucoside wash buffer in PSB. Bead samples and starting material cell lysates were separated on a 7.5% SDS-PAGE gel.\nImmunoblotting. Protein lysates were separated on SDS-PAGE gels and transferred onto polyvinylidene fluoride (PVDF) membrane (Millipore, Etobicoke, ON). Membranes were blocked and probed, where appropriate, with the following primary antibodies overnight: SHIP1 (P1C1) (Santa Cruz Biotechnology), pSHIP1 (Y190) (Kinexus), STAT3 (9D8) (ThermoFisher Scientific), pSTAT3 (Y705) (Thermo Fisher Scientific), STAT1 (BD Transduction Laboratories), pSTAT1 (Y701) (Upstate Biotechnology), GAPDH and actin (Sigma-Aldrich). Membranes were developed with either Alexa Fluor® 660 anti-mouse IgG or Alexa Fluor® 680 anti-rabbit IgG antibodies (Thermo Fisher Scientific) and imaged using a LI-COR Odyssey Imager."}, "[2]": {"molecular_target": "T2, Clover-SHIP1 and mRuby2-STAT3 (Mus musculus, UniProt Q9ES52)", "T2 construct": "expressed in transfected cells; host or cells: J17 (SHIP1-/- mouse macrophage line), lentiviral transduction", "assay": "Acceptor photobleaching FRET analysis", "type": "cell-based", "conditions": "J17 SHIP1−/− cells expressing Clover-SHIP1/mRuby2-STAT3; 1 minute; 100 ng/ml IL10, IL6 or 20 μM I-2", "method": "Acceptor Photobleaching FRET analysis. J17 cells expressing Clover-SHIP1 and/or mRuby2-STAT3 were seeded at 50×10^4 cells per well in 8-well Ibidi p-Slides (Ibidi GmbH, Martinsried, Germany). After overnight incubation, cells were serum-starved with Mac media containing 1% serum for 3 hours before media replacement with Leibovitz's (L-15) media (Invitrogen, Burlington, ON) supplemented with 1% serum, 10 μM β-mercaptoethanol, 150 μM monothioglycolate and 1 mM L-glutamine for confocal microscopy imaging. Cells were imaged on a Leica SP8X on DMi8 confocal microscope system with a 63×/1.3 Gly HC PL APO CS2 objective using a white light laser line with 488 nm for donor excitement and 555 nm for acceptor excitement. Photobleaching FRET analysis was performed by measuring Clover-SHIP1 donor fluorescence intensity before and after bleaching the acceptor, mRuby2-STAT3, within a field of cells ‘region of interest’ (ROI), at 100% laser intensity for 60 frames. Acceptor photobleaching was performed first in resting cells then at 1 minute (±5 seconds) following ‘mock’ stimulation with L-15 media, or L-15 media containing 100 ng/ml IL10, IL6 or 20 μM compound I-2. Donor and acceptor fluorescence intensity of individual cells within the bleached ROI was quantified before and after bleaching. Percentage FRET efficiency was calculated as % FRETeff=100×(Dpost−Dpre)/Dpost where Dpre and Dpost represent Clover-SHIP1 donor fluorescence intensity before and after bleaching, respectively."}, "[3]": {"molecular_target": "T3, PAC2-K681A (Mus musculus, UniProt Q9ES52, K681A)", "T3 construct": "PAC1 and PAC2 consists of phosphatase and C2 domain (residues aa 402-861 and aa 402-857 respectively); made in house; host or cells: E. coli BL21 co-transformed with pBirAcm", "T3 sequence (Q9ES52 402-857 K681A)": "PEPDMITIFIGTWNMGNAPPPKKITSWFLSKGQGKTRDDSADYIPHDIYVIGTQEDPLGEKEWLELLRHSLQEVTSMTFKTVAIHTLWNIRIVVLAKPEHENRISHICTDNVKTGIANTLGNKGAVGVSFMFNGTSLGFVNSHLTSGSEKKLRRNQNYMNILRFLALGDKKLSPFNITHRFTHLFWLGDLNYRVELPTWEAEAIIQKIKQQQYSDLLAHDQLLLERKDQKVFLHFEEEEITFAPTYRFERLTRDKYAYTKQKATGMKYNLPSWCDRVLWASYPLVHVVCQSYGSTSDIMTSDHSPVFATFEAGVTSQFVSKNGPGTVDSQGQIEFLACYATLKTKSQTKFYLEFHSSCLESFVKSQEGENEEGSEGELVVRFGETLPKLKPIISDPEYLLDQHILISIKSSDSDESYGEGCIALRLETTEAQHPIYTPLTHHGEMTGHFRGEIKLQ", "assay": "Biolayer interferometry, PAC2-K681A", "type": "binding", "conditions": "20 μM analyte; K681A vs wild-type PAC2", "method": "(§1) Expression of PAC2-Avi tag for Biolayer interferometry. A sequence corresponding to Avi-tag ([…]) was added to the c-terminal end of the PAC2 in LIC-HMT-PAC2 expressing vector via standard restriction digestion and ligation. The LIC-HMT-PAC2-Avi expressing vector was then co-transformed into E. coli BL21 cells with pBirAcm expression vector in 1:1 molar ratio. Overnight culture was inoculated with a 250-fold dilution to start the actual culture. The cells were grown at 37° C. in LB medium (supplemented with 50 μg/mL of kanamycin and 10 μg/mL of chloramphenicol) with shaking speed of 225 rpm. When OD600 reached about 0.6, 5 mM of biotin in bicine buffer pH 8.3 was added to the culture to have final concentration of 125 μM of biotin. The culture was then cooled down to room temperature before the addition of 0.4 mM isopropyl-B-D-1-thiogalactopyranoside (IPTG) to induce the expression of the recombinant protein with Avi-tag. The rest of the method is identical as written in “Expression of PAC2 for crystallography”.\n(§2) Biolayer interferometry. […] The association was measured for 600 s at an analyte concentration of 20 μM followed by dissociation for 300 s in the same buffer as the baseline. The raw data was analyzed using the Octet Red Data Analysis software (ver. 8.2). […]"}, "[4]": {"molecular_target": "T4, PAC2 WT (Mus musculus, UniProt Q9ES52)", "T4 construct": "PAC1 and PAC2 consists of phosphatase and C2 domain (residues aa 402-861 and aa 402-857 respectively); made in house; host or cells: E. coli BL21 co-transformed with pBirAcm", "T4 sequence (Q9ES52 402-857)": "T3 sequence (Q9ES52 402-857 K681A) with A280K", "assay": "Biolayer interferometry, wild-type PAC2", "type": "binding", "conditions": "20 μM analyte; compared to compound I-2 or PI(3,4)P2", "method": "as §1, §2"}, "[5]": {"molecular_target": "T5, SHIP1 (Homo sapiens, UniProt Q92835)", "T5 sequence (Q92835 1-1189)": "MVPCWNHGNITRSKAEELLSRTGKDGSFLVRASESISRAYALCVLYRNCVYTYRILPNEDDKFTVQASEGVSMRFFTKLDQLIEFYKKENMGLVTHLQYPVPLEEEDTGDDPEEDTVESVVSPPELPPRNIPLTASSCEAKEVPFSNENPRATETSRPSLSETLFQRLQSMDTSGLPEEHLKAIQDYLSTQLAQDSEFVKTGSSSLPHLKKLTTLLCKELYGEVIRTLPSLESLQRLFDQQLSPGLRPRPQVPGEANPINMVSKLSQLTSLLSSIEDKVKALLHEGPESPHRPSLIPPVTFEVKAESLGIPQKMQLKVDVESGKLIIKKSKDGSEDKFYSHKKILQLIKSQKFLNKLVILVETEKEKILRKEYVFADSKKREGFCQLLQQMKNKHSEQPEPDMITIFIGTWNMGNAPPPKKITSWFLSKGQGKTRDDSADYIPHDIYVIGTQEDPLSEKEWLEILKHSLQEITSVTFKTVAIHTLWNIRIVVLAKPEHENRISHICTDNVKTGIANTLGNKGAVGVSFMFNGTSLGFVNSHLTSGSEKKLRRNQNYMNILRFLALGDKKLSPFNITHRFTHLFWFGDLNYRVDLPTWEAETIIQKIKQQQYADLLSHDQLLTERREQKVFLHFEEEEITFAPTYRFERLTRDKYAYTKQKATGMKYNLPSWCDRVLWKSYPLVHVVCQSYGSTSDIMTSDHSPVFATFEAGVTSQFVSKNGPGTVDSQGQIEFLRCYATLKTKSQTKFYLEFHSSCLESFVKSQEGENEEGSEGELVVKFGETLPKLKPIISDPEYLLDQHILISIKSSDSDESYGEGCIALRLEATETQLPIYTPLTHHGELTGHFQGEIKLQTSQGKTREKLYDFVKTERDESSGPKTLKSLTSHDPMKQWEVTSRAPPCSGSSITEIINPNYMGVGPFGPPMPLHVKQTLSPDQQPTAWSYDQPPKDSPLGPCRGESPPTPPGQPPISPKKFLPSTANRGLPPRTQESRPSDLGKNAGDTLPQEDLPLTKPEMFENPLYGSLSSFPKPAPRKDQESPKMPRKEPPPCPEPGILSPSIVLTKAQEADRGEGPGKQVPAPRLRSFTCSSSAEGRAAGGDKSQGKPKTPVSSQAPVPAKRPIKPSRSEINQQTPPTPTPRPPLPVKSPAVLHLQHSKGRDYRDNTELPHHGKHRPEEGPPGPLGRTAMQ", "conditions": "Stenton et al., 2013b; cited from earlier work"}, "[6]": {"molecular_target": "T5, SHIP1", "conditions": "scintillation proximity assay, Stenton et al; cited from earlier work"}}, "note": "Residue numbers refer to the chain shown, from its start.", "data": [{"compound": "IL6: pro-inflammatory cytokine IL6", "values": [{"measurement": "association (co-precipitation) of SHIP1 and STAT3", "setting": "[1]", "result": "failed to induce STAT3 association with SHIP1"}, {"measurement": "Clover-mRuby2 FRET signal", "setting": "[2]", "result": "not"}]}, {"compound": "PI(3,4)P2 [reference compound]", "values": [{"measurement": "binding to PAC2 with K681A substitution (BLI)", "setting": "[3]", "result": "impairs"}]}, {"compound": "C=C1CC[C@H]2[C@H](CN)[C@@H]([C@@]3(C)CC[C@H](O)C[C@@H]3CO)CC[C@]12C", "note": "[AQX-1125/Rosiptor]", "values": [{"measurement": "binding to SHIP1 (PAC2 WT) in BLI assay", "setting": "[4]", "result": "binds very poorly"}, {"measurement": "SHIP1 phosphatase enhancing activity", "setting": "[5]", "result": "marginal"}, {"measurement": "signal of tritiated compound binding to SHIP1 protein", "setting": "[6]", "result": "~300", "unit": "cpm"}]}]}
